The results in this text go back to US20040053407A1, “Method for in vitro culture of ovarian follicles” (priority 2000, published 2004).

In the data set the test system is secondary follicles (folliculogenesis). In words: In vitro follicle culture testing the influence of taxol on folliculogenesis and oocyte maturation. It is filed as cell-based, mouse. The settings on record: secondary follicles scored after 13 days. From the text:
Ovarian tissue is isolated from 12 to 14 days old F1 hybrids C57Bl/j6×CBAca mice and kept in a culture dish comprising Leibovitz's L15 medium with GlutaMAX I™ (Gibco BRL 31415-029) with 10% HIA FBS (Heat Inactivated Foetal Bovine Serum) and 0.1% penicillin-streptomycin-mix (Gibco BRL 3032908). The ovaries have to be freed of oviduct and fat.
Not all follicles in suspension from example 1 are suitable for follicle culture. To make sure that all follicles grow at approximately the same rate, the selected follicles should have a similar diameter. In this specific case, a diameter of between 100 and 130 μm is suitable and points to development of the follicle up to the early preantral (secondary) stage. […] FIG. 2b. Said follicles further comprise theca-interstitial cells 17, a basal membrane 19 and a zona pellucida 21. Follicles are observed under a stereomicroscope and measured under an inverted microscope. Suitable follicles are picked up using suitably arranged pasteur pipettes and transferred to a cryovial (for stocking, see example 3) or to a culture plate (for follicle culture, see example 4).
When starting from secondary follicles, one can start immediately with culture using the second medium. This medium will promote adhesion to the culture recipient surface. Culture medium is refreshed every four days. On day 12, the culture medium is refreshed using the third medium in stead of the second. This medium will cause the release of a mucified oocyte-cumulus complex from the follicle overnight, while the oocyte finalises maturation.
Cultures are done in 75 μl of culture medium. When refreshing medium, 30 μl of used medium is removed and 30 μl of fresh medium is added. Schematically, both procedures can be summarised as follows:
The same method is used as in example 4. Secondary follicles are used. […] All media used in the culture steps are constituted as follows:
The culture medium is refreshed every 4 days by removing 30 μl and addition of 30 μl of fresh medium.
After 13 days, follicles are scored on survival, mucification, presence of polar body (PB), and oocyte diameter.

Where [1] appears, read: Taxol 0.01 nM in all media (plates 3+4).
The mark [2] stands for this setting: Taxol 0.1 nM in all media (plates 5+6).
Setting [3] is: Taxol 1 nM in all media (plates 7+8).
Where [4] appears, read: Taxol 10 nM in all media (plate 9).

`CC(=O)O[C@H]1C(=O)[C@@]2(C)[C@H]([C@H](OC(=O)c3ccccc3)[C@]3(O)C[C@H](OC(=O)[C@H](O)[C@@H](NC(=O)c4ccccc4)c4ccccc4)C(C)=C1C3(C)C)[C@]1(OC(C)=O)CO[C@@H]1C[C@@H]2O` [Taxol]: the Mucification mean is, setting by setting: under setting [1], 100%; under setting [2], 96%; under setting [3], 96%; under setting [4], 0. The “PB (presence of polar body) mean” value reads like this: under setting [1], 75%; under setting [2], 75%; under setting [3], 55%; under setting [4], 0. Further, the Survival mean amounted to 87% under setting [1], 100% under setting [2], 92% under setting [3] and 0% under setting [4].
